# Assay results reported in publication PMC4830539, “Chemical Inhibition of Histone Deacetylases 1 and 2 Induces Fetal Hemoglobin through Activation of GATA2” (PLoS ONE, 2016).
# Legend:
# HbF = tested on: HbF; set-up: method as in PMID 16888791, PMID 12393499, PMID 25808664, PMID 24606390, PMID 16939493; settings: cell lines and primary cells; cited from earlier work
# erythroid progenitors = tested on: erythroid progenitors; set-up: method as in PMID 16939493; settings: by suppressing the EPO-mediated survival of CD36highGYPAhigh cells; cited from earlier work
# HbF protein = HbF protein by flow cytometry in BM cells (CS1, CS2); type: cell-based, human; settings: 1 μM ACY-957 or 30 μM hydroxyurea
# Experimental: CD34+ cells isolated from human bone marrow of healthy normal donors (Lonza, AllCells, or StemCell Technologies), referred to as BM cells throughout this work, were cultured using two distinct 2-phase culture systems. These systems have been described previously and are referred to as Culture System 1 (CS1) and Culture System 2 (CS2) throughout this work. CS1 expansion media is StemSpan SFEM (StemCell Technologies) supplemented with CC100 (StemCell Technologies), 100 U/mL penicillin and 100 μg/mL streptomycin. CC100 is a mix of Flt-3 ligand (FLT3LG), KIT ligand (KITLG), interleukin-3 (IL3), and interleukin-6 (IL6). CS1 differentiation media is StemSpan SFEM supplemented with 1 U/ml erythropoietin (EPO), 5 ng/mL IL3, 20 ng/mL KITLG, 2 μM dexamethasone, 1 μM beta-estradiol, 100 U/mL penicillin and 100 μg/mL streptomycin. CS2 expansion media is StemSpan SFEM supplemented with 1% glutamine, 40 μg/mL lipids (Sigma), 100 ng/mL KITLG, 10 ng/mL IL3, and 0.5 U/mL EPO. CS2 differentiation media is same as CS2 expansion media, except 3 U/mL EPO.
# Flow cytometry was performed on a FC500 flow cytometer ([…]). Fetal hemoglobin protein was assayed using the Fetal Hemoglobin Test Kit (Life Technologies) according to manufacturer’s protocol. Samples were stained with FITC-conjugated mouse IgG1 anti-human HbF antibody (clone HbF-1, Life Technologies). Each sample was also stained with a FITC-conjugated mouse IgG1 isotype control antibody (clone X40, BD Biosciences) and used as a negative control. FETALtrol cells were used as positive controls (Trillium Diagnostics). TFRC and GYPA were detected on fresh cells by staining with 20 μL of PE-conjugated anti-human TFRC (clone M-A712, catalog 555537, BD Biosciences) and 0.5 μL of FITC- or APC-conjugated anti-human GYPA (clone GA-R2 (HIR2), catalog 559943 or 551336, BD Biosciences) in 200 μL PBS with 0.1% BSA for 40 min on ice. Forward and side scatter, or staining with 7AAD (catalog 559925, BD Biosciences), was used to identify viable cells.
# To determine if the HBG mRNA induction observed in the presence of ACY-957 was associated with an increase in the HbF protein, CS1 and CS2 cells at day 5 were stained with a fluorescently conjugated anti-HbF antibody and evaluated by flow cytometry. HbF positive cells were increased by 2 to 3-fold upon treatment with ACY-957, which exceeded the response observed with hydroxyurea (Fig 2B and 2E).
SMILES,HbF induction (HbF),effect on erythroid progenitors (erythroid progenitors),other results
C/C=C1\NC(=O)[C@H]2CSSCC/C=C/[C@H](CC(=O)N[C@H](C(C)C)C(=O)N2)OC(=O)[C@H](C(C)C)NC1=O [romidepsin],induce HbF,accumulation CD36^highGYPA^mid erythroid progenitors,–
CCN(CC)Cc1ccc2cc(COC(=O)Nc3ccc(C(=O)NO)cc3)ccc2c1 [givinostat],induce HbF,–,–
CC(/C=C/C(=O)NO)=C\[C@@H](C)C(=O)c1ccc(N(C)C)cc1 [trichostatinA],–,accumulation CD36^highGYPA^mid erythroid progenitors,–
Nc1ccccc1NC(=O)c1ccc(CNC(=O)OCc2cccnc2)cc1 [MS-275],induce HbF,–,–
O=C(CCCCCCC(=O)Nc1ccccc1)NO [vorinostat],induce HbF,–,–
"NC(=O)NO [hydroxyurea, reference compound]",–,–,"HbF positive cells (HbF protein; CS1, day 5): 20%; MFI of HbF positive cells (HbF protein; CS1, day 5): 52; HbF positive cells (HbF protein; CS2, day 5): 39%; MFI of HbF positive cells (HbF protein; CS2, day 5): 12"
